# Laboratory results from US20230295118A1 (EnhancedBio Inc., priority 2022, published 2023).
# Read-outs that look alike come from different tables or passages of the source.
# How the values were obtained:
# Type in all cases: cell-based
# [1] = tested on: mantle cell lymphoma cell (Mino or JeKo-1); test: Antiproliferative effect, MTS cell viability assay
# Procedure: Antiproliferative effect of the exemplary compounds was assessed in B-cell malignancy models.
# To assess the effect of the exemplary compounds on cell viability in B-cell malignancy models by degradation of CDK4/6 proteins, Mino cells were treated with varying concentrations of exemplary compounds (0, 0.0001, 0.001, 0.01, 0.1, 1 μM) or positive control (palbociclib and abemaciclib). Under these conditions, cell viability was determined by an MTS assay. Cytotoxicity was assayed by the determination of reduced tetrazolium (formazan) created by metabolically active cells as detected at 490 nanometers (nm) absorbance using a microplate reader (BMG Labtech, Cary, NC, USA).
# The exemplary compounds attenuated the viability of Mino cells in a concentration-dependent manner at 72 h post treatment. Results are shown in Table 1 and FIGS. 2-15 for each exemplary compound.
# [2] = biological target: T1, CDK4 (Homo sapiens, UniProt P11802); test: CDK4 degradation (DC50, Dmax)
# T1 construct: endogenous in cells
# [3] = biological target: T2, CDK6 (Homo sapiens, UniProt Q00534); test: CDK6 degradation (DC50, Dmax)
# T2 construct: endogenous in cells
# [4] = 72 h, mantle cell lymphoma cell (Mino or JeKo-1), MTS assay, read-out: IC50 (anti-proliferation)
# [5] = mantle cell lymphoma cell (Mino or JeKo-1); MTS assay, 72 h; read-out: IC50 (anti-proliferation)
# T1 sequence (P11802 whole entry): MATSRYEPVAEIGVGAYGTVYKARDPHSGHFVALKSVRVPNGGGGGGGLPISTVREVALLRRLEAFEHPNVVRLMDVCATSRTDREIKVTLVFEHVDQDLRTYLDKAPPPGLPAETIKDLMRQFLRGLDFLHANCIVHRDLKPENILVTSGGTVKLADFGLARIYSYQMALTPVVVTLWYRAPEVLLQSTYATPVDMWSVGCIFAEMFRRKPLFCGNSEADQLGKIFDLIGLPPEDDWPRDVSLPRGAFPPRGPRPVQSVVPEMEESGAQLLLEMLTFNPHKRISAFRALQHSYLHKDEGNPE
# T2 sequence (Q00534 whole entry): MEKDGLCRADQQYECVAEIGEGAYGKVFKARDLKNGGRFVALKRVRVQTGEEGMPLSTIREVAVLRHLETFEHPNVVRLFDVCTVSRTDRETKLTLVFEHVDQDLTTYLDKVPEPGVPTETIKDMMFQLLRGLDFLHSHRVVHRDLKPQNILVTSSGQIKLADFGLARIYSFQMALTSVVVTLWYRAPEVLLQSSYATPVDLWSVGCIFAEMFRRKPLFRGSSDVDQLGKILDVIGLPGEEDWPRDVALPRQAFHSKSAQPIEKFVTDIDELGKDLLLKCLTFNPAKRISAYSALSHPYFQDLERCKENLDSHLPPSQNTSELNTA
"IC50 [1, 4] [nM]",DC50 [2] [nM],Dmax [2] [%],DC50 [3] [nM],Dmax [3] [%],SMILES,"IC50 [1, 5] [nM]"
> 200,> 200,> 50,> 200,> 50,"CC(=O)c1c(C)c2cnc(Nc3ccc(N4CCN(C(=O)N5CCN(CCC6CCN(c7ccc8c(c7)CN(C7CCC(=O)NC7=O)C8=O)CC6)CC5)CC4)cn3)nc2n(C2CCCC2)c1=O (stereo not shown) [Compound 24, 3-(5-(4-(2-(4-(4-(6-((6-acetyl-8-cyclopentyl-5-methyl-7-oxo-7,8-dihydropyrido[2,3-d]pyrimidin-2-yl)amino)pyridin-3-yl)piperazine-1-carbonyl)piperazin-1-yl)ethyl)piperidin-1-yl)-1-oxoisoindolin-2-yl)piperidine-2,6-dione]",–
50 to 200,> 200,> 50,> 200,> 50,"CC(=O)c1c(C)c2cnc(Nc3ccc(N4CCN(C(=O)N5CCC(CCC6CCN(c7ccc8c(c7)CN(C7CCC(=O)NC7=O)C8=O)CC6)CC5)CC4)cn3)nc2n(C2CCCC2)c1=O (stereo not shown) [Compound 26, 3-(5-(4-(2-(1-(4-(6-((6-acetyl-8-cyclopentyl-5-methyl-7-oxo-7,8-dihydropyrido[2,3-d]pyrimidin-2-yl)amino)pyridin-3-yl)piperazine-1-carbonyl)piperidin-4-yl)ethyl)piperidin-1-yl)-1-oxoisoindolin-2-yl)piperidine-2,6-dione]",–
50 to 200,> 200,> 60,> 200,> 60,"CC(=O)c1c(C)c2cnc(Nc3ccc(N4CCN(C(=O)N5CCN(CCN6CCC(c7ccc8c(c7)CN(C7CCC(=O)NC7=O)C8=O)CC6)CC5)CC4)cn3)nc2n(C2CCCC2)c1=O (stereo not shown) [Compound 28, 3-(5-(1-(2-(4-(4-(6-((6-acetyl-8-cyclopentyl-5-methyl-7-oxo-7,8-dihydropyrido[2,3-d]pyrimidin-2-yl)amino)pyridin-3-yl)piperazine-1-carbonyl)piperazin-1-yl)ethyl)piperidin-4-yl)-1-oxoisoindolin-2-yl)piperidine-2,6-dione]",–
> 200,> 200,> 50,> 200,> 50,"CC(=O)c1c(C)c2cnc(Nc3ccc(N4CCN(C(=O)N5CCC(CCN6CCC(c7ccc8c(c7)CN(C7CCC(=O)NC7=O)C8=O)CC6)CC5)CC4)cn3)nc2n(C2CCCC2)c1=O (stereo not shown) [Compound 30, 3-(5-(1-(2-(1-(4-(6-((6-acetyl-8-cyclopentyl-5-methyl-7-oxo-7,8-dihydropyrido[2,3-d]pyrimidin-2-yl)amino)pyridin-3-yl)piperazine-1-carbonyl)piperidin-4-yl)ethyl)piperidin-4-yl)-1-oxoisoindolin-2-yl)piperidine-2,6-dione]",–
50 to 200,50 to 200,> 60,50 to 200,> 60,"CC(=O)c1c(C)c2cnc(Nc3ccc(N4CCN(CC5CCN(C(=O)N6CCN(c7ccc8c(c7)CN(C7CCC(=O)NC7=O)C8=O)CC6)CC5)CC4)cn3)nc2n(C2CCCC2)c1=O (stereo not shown) [Compound 32, 3-(5-(4-(4-((4-(6-((6-acetyl-8-cyclopentyl-5-methyl-7-oxo-7,8-dihydropyrido[2,3-d]pyrimidin-2-yl)amino)pyridin-3-yl)piperazin-1 - yl)methyl)piperidine-1-carbonyl)piperazin-1-yl)-1-oxoisoindolin-2-yl)piperidine-2,6-dione]",–
50 to 200,> 200,> 60,> 200,> 50,"CC(=O)c1c(C)c2cnc(Nc3ccc(N4CCN(CC5CCN(C(=O)N6CCC(c7ccc8c(c7)C(=O)N(C7CCC(=O)NC7=O)C8=O)CC6)CC5)CC4)cn3)nc2n(C2CCCC2)c1=O (stereo not shown) [Compound 33, 5-(1-(4-((4-(6-((6-acetyl-8-cyclopentyl-5-methyl-7-oxo-7,8-dihydropyrido[2,3-d]pyrimidin-2-yl)amino)pyridin-3-yl)piperazin-1-yl)methyl)piperidine-1-carbonyl)piperidin-4-yl)-2-(2,6-dioxopiperidin-3-yl)isoindoline-1,3-dione]",–
> 200,> 200,> 50,> 200,> 50,CC(=O)c1c(C)c2cnc(Nc3ccc(N4CCN(CC5CCN(C(=O)N6CCC(c7ccc8c(c7)CN(C7CCC(=O)NC7=O)C8=O)CC6)CC5)CC4)cn3)nc2n(C2CCCC2)c1=O (stereo not shown) [Compound 34],–

# Further lines, the molecule ahead of its results:
SMILES,"IC50 [1, 4] [nM]",DC50 [2] [nM],Dmax [2] [%],DC50 [3] [nM],Dmax [3] [%],"IC50 [1, 5] [nM]"
"CC(=O)c1c(C)c2cnc(Nc3ccc(N4CCN(C(=O)N5CCN(CCN6CCN(c7ccc8c(c7)CN(C7CCC(=O)NC7=O)C8=O)CC6)CC5)CC4)cn3)nc2n(C2CCCC2)c1=O (stereo not shown) [Compound 22, 3-(5-(4-(2-(4-(4-(6-((6-acetyl-8-cyclopentyl-5-methyl-7-oxo-7,8-dihydropyrido[2,3-d]pyrimidin-2-yl)amino)pyridin-3-yl)piperazine-1-carbonyl)piperazin-1-yl)ethyl)piperazin-1-yl)-1-oxoisoindolin-2-yl)piperidine-2,6-dione]",> 200,> 200,> 60,> 200,> 60,–
"CC(=O)c1c(C)c2cnc(Nc3ccc(N4CCN(C(=O)N5CCN(CCC6CCN(c7ccc8c(c7)C(=O)N(C7CCC(=O)NC7=O)C8=O)CC6)CC5)CC4)cn3)nc2n(C2CCCC2)c1=O (stereo not shown) [Compound 23, 5-(4-(2-(4-(4-(6-((6-acetyl-8-cyclopentyl-5-methyl-7-oxo-7,8-dihydropyrido[2,3-d]pyrimidin-2-yl)amino)pyridin-3-yl)piperazine-1-carbonyl)piperazin-1-yl)ethyl)piperidin-1-yl)-2-(2,6-dioxopiperidin-3-yl) isoindoline-1,3-dione]",> 200,> 200,> 60,> 200,> 60,–
"CC(=O)c1c(C)c2cnc(Nc3ccc(N4CCN(C(=O)N5CCC(CCC6CCN(c7ccc8c(c7)C(=O)N(C7CCC(=O)NC7=O)C8=O)CC6)CC5)CC4)cn3)nc2n(C2CCCC2)c1=O (stereo not shown) [Compound 25, 5-(4-(2-(1-(4-(6-((6-acetyl-8-cyclopentyl-5-methyl-7-oxo-7,8-dihydropyrido[2,3-d]pyrimidin-2-yl)amino)pyridin-3-yl)piperazine-1-carbonyl)piperidin-4-yl)ethyl)piperidin-1-yl)-2-(2,6-dioxopiperidin-3-yl)isoindoline-1,3-dione]",50 to 200,> 200,> 60,50 to 200,> 60,–
"CC(=O)c1c(C)c2cnc(Nc3ccc(N4CCN(C(=O)N5CCN(CCN6CCC(c7ccc8c(c7)C(=O)N(C7CCC(=O)NC7=O)C8=O)CC6)CC5)CC4)cn3)nc2n(C2CCCC2)c1=O (stereo not shown) [Compound 27, 5-(1-(2-(4-(4-(6-((6-acetyl-8-cyclopentyl-5-methyl-7-oxo-7,8-dihydropyrido[2,3-d]pyrimidin-2-yl)amino)pyridin-3-yl)piperazine-1-carbonyl)piperazin-1-yl)ethyl)piperidin-4-yl)-2-(2,6-dioxopiperidin-3-yl)isoindoline-1,3-dione]",50 to 200,> 200,> 60,> 200,> 60,–
"CC(=O)c1c(C)c2cnc(Nc3ccc(N4CCN(C(=O)N5CCC(CCN6CCC(c7ccc8c(c7)C(=O)N(C7CCC(=O)NC7=O)C8=O)CC6)CC5)CC4)cn3)nc2n(C2CCCC2)c1=O (stereo not shown) [Compound 29, 5-(1-(2-(1-(4-(6-((6-acetyl-8-cyclopentyl-5-methyl-7-oxo-7,8-dihydropyrido[2,3-d]pyrimidin-2-yl)amino)pyridin-3-yl)piperazine-1-carbonyl)piperidin-4-yl)ethyl)piperidin-4-yl)-2-(2,6-dioxopiperidin-3-yl)isoindoline-1,3-dione]",> 200,> 200,> 50,> 200,> 50,–
"CC(=O)c1c(C)c2cnc(Nc3ccc(N4CCN(CC5CCN(C(=O)N6CCN(c7ccc8c(c7)C(=O)N(C7CCC(=O)NC7=O)C8=O)CC6)CC5)CC4)cn3)nc2n(C2CCCC2)c1=O (stereo not shown) [Compound 31, 5-(4-(4-((4-(6-((6-acetyl-8-cyclopentyl-5-methyl-7-oxo-7,8-dihydropyrido[2,3-d]pyrimidin-2-yl)amino)pyridin-3-yl)piperazin-1-yl)methyl)piperidine-1-carbonyl)piperazin-1-yl)-2-(2,6-dioxopiperidin-3-yl)isoindoline-1,3-dione]",–,50 to 200,> 80,50 to 200,> 80,< 50
"CC(=O)c1c(C)c2cnc(Nc3ccc(N4CCN(C5CCN(C(=O)N6CCN(c7ccc8c(c7)C(=O)N(C7CCC(=O)NC7=O)C8=O)CC6)CC5)CC4)cn3)nc2n(C2CCCC2)c1=O (stereo not shown) [Compound 35, 5-(4-(4-(4-(6-((6-acetyl-8-cyclopentyl-5-methyl-7-oxo-7,8-dihydropyrido[2,3-d]pyrimidin-2-yl)amino)pyridin-3-yl)piperazin-1-yl)piperidine-1-carbonyl)piperazin-1-yl)-2-(2,6-dioxopiperidin-3-yl)isoindoline-1,3-dione]",–,50 to 200,> 60,> 200,> 60,50 to 200
